Measured values reported in PMC11891622 (Angewandte Chemie (International Ed. in English), 2025).
“Also recorded” adds a separate entry of the source. Read-outs that look alike come from different tables or passages of the source.

How the values were obtained:
[1] = molecular target: SARS-CoV-2 Nucleocapsid protein N-terminal globular domain NTD (44–180) (Severe acute respiratory syndrome coronavirus 2, UniProt P0DTC9); type: binding
[2] = tested on: SARS-CoV-2 Nucleocapsid protein NTR (1–248) (NTD plus two flanking IDRs); type: binding; conditions: for peaks of poly-L region (216–225): 0.25 equiv. of the chimaera

Ac‐Glu‐Gly‐Glu‐Gly‐Glu‐Gly‐Gly‐Glu‐gggg‐Glu‐Gly‐Gly‐Glu‐Gly‐Glu‐(β‐Ala)‐Glu [P-PNA]
CSP magnitude, chimaera versus peptide P [1]: CSP for the same residues are more pronounced in the case of the chimaera adduct; also recorded: chemical shift perturbation values are clearly higher for the chimeric molecule
affinity compared with gRNA fragments / oligonucleotides [1]: despite larger, is not significantly distant from those reported in the literature for studies conducted with gRNA fragments; also recorded: lower than that of some oligonucleotides of similar length
affinity compared with the peptide / chimaera counterpart [1]: superior affinity over the pure peptide precursor; also recorded: higher affinity for an RNA‐binding protein, such as the nucleocapsid protein of SARS‐CoV‐2, compared to a pure designed peptide
CSP pattern: location of most affected residues ([1]; pH 6.5): predominantly cluster within three main regions, as reported in Figure 2B and 2C, very similar to those identified when interacting with RNA
exchange regime on the NMR time scale ([1]; pH 6.5): an interaction taking place in a fast exchange regime on the NMR time scale
peaks of poly-L region (216–225) ([2]; 70 µM NTR1-248, pH 6.5, 298 K, listed as P‐PNA): several cross peaks disappearing at only 0.25 equiv. of ligand added
peaks of poly-L region (216–225) ([2]; 70 µM NTR1-248, pH 6.5, 298 K, listed as chimaera): disappeared immediately after the addition of only 0.25 equiv. of the chimaera
major CSPs on the NTD (44–180) region within NTR (1–248) ([2]; CSP at 1 equiv. P-PNA, 70 µM NTR1-248, pH 6.5, 298 K): identified once again in the basic finger of NTD (44–180)
similarity of affected regions to those with RNA fragments ([2]; NTR (1–248), comparison with ref [22], [24]): the regions that are most affected by the interaction are similar to those identified when studying the interaction of NTR (1–248) with RNA fragments
most perturbed residues, IDR2 (181–248) SR-rich region (177–203) ([2]; pH 6.5): the SR‐rich region, which shows the highest CSP values; also recorded: The most perturbed residues are found in the SR‐rich region (177–203
intensity of NTD (44–180) peaks within NTR (1–248) ([2]; upon addition of the chimaera, 70 µM NTR1-248, pH 6.5, 298 K): several peaks of NTD (44–180) decrease in intensity or disappear completely
